Experimental data taken from ChEMBL document CHEMBL4715730, “Design, synthesis, and pharmacological evaluation of multitarget-directed ligands with both serotonergic subtype 4 receptor (5-HT4R) partial agonist and 5-HT6R antagonist activities, as potential treatment of Alzheimer's disease” (Eur J Med Chem, 2016).
Active and inactive are the calls of the source. The rule behind the calls is not given here.

Experiments:
[1] = molecular target: T1, 5-hydroxytryptamine receptor 6 (Homo sapiens, UniProt P50406); assay: Displacement of [3H]-LSD from human 5-HT6 receptor expressed in HEK293 cells at 0.01 uM in presence of serotonin incubated for 60 mins; type: cell-based
[2] = molecular target: T1, 5-hydroxytryptamine receptor 6; assay: Displacement of [3H]-LSD from human 5-HT6 receptor expressed in HEK293 cells at 1 uM in presence of serotonin incubated for 60 mins; type: cell-based
[3] = molecular target: 5-hydroxytryptamine receptor 4 (Cavia porcellus, UniProt O70528); assay: Displacement of [3H]-GR113808 from guinea pig brain 5HT4 receptor in presence of serotonin incubated for 30 mins; type: tissue-based
[4] = molecular target: 5-hydroxytryptamine receptor 4 (Cavia porcellus) (UniProt O70528); assay: Displacement of [3H]-GR113808 from guinea pig brain 5HT4 receptor at 0.01 uM in presence of serotonin incubated for 30 mins; type: tissue-based
[5] = molecular target: 5-hydroxytryptamine receptor 4 (Cavia porcellus) (UniProt O70528); assay: Displacement of [3H]-GR113808 from guinea pig brain 5HT4 receptor at 1 uM in presence of serotonin incubated for 30 mins; type: tissue-based
[6] = molecular target: T1, 5-hydroxytryptamine receptor 6; assay: Displacement of [3H]-LSD from human 5-HT6 receptor expressed in HEK293 cells in presence of serotonin incubated for 60 mins; type: cell-based
[7] = molecular target: T2, 5-hydroxytryptamine receptor 2C (Homo sapiens, UniProt P28335); assay: Displacement of [125I]+/-DOI from human recombinant 5-HT2C receptor after 60 mins by scintillation counting analysis
T2 sequence (P28335 whole entry): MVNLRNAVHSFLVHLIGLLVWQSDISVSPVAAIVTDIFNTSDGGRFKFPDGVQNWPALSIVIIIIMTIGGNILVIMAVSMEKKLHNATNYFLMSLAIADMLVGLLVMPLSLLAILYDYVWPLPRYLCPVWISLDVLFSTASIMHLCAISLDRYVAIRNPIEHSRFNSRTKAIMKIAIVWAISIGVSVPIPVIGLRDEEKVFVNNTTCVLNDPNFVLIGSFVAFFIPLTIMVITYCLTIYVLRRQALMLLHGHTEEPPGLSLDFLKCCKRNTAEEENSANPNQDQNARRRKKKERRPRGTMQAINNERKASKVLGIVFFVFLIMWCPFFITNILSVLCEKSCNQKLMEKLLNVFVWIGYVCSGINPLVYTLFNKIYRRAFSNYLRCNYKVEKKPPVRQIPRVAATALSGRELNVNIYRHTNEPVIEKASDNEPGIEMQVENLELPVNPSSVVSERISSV

[8] = molecular target: 5-hydroxytryptamine receptor 2B (Homo sapiens) (UniProt P41595); assay: Displacement of [125I]+/-DOI from human recombinant 5-HT2B receptor at 0.01 uM after 60 mins by scintillation counting analysis relative to control
[9] = molecular target: T3, 5-hydroxytryptamine receptor 2C (Homo sapiens) (UniProt P28335); assay: Displacement of [125I]+/-DOI from human recombinant 5-HT2C receptor at 10 uM after 60 mins by scintillation counting analysis relative to control
T3 sequence (whole entry): T2 sequence (P28335 whole entry)

[10] = molecular target: 5-hydroxytryptamine receptor 2B (Homo sapiens) (UniProt P41595); assay: Displacement of [125I]+/-DOI from human recombinant 5-HT2B receptor at 10 uM after 60 mins by scintillation counting analysis relative to control
[11] = molecular target: T4, 5-hydroxytryptamine receptor 2A (Homo sapiens, UniProt P28223); assay: Displacement of [3H]ketanserin human recombinant 5-HT2A receptor after 60 mins by scintillation counting analysis relative to control
[12] = molecular target: T4, 5-hydroxytryptamine receptor 2A; assay: Displacement of [3H]ketanserin human recombinant 5-HT2A receptor at 10 uM after 60 mins by scintillation counting analysis relative to control
[13] = molecular target: 5-hydroxytryptamine receptor 1D (Rattus norvegicus) (UniProt P28565); assay: Displacement of [3H]serotonin from recombinant rat 5-HT1D receptor at 10 uM after 60 mins by scintillation counting analysis relative to control
[14] = molecular target: 5-hydroxytryptamine receptor 1B (Rattus norvegicus) (UniProt P28564); assay: Displacement of [125I]-CYP from rat brain 5-HT1B receptor at 10 uM after 120 mins by scintillation counting analysis relative to control; type: tissue-based
[15] = molecular target: T5, 5-hydroxytryptamine receptor 1A (Homo sapiens) (UniProt P08908); assay: Displacement of [3H]8-OH-DPAT from recombinant human 5-HT1A receptor at 10 uM after 60 mins by scintillation counting analysis relative to control
T5 sequence (whole entry): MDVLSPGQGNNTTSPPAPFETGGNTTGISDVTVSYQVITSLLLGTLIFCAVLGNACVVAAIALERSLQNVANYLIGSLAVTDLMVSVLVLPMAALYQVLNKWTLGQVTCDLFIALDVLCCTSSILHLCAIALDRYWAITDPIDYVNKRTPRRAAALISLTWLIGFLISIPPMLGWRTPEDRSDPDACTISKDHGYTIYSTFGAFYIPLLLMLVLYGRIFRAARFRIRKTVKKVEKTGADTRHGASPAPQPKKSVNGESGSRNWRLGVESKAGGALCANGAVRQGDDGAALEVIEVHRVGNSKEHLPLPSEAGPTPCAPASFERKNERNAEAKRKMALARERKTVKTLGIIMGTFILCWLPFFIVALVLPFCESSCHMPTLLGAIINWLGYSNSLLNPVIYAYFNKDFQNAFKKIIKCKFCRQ

Mus musculus [16] = assay: Anti-amnesic effect in scopolamine-induced memory impairment NMRI mouse model assessed as spatial working memory by measuring increase in spontaneous alteration at 10 mg/kg, ip measured after 30 mins by Y-maze test; type: functional, organism-based
Mus musculus [17] = assay: Anti-amnesic effect in scopolamine-induced memory impairment NMRI mouse model assessed as spatial working memory by measuring increase in spontaneous alteration at 1 mg/kg, ip measured after 30 mins by Y-maze test; type: functional, organism-based
[18] = Effect on spontaneous locomotory activity in NMRI mouse at 100 mg/kg, ip measured for 30 mins; type: organism-based; settings: in vivo, 0.5 h
[19] = Toxicity in NMRI mouse assessed as behavioral changes upto 100 mg/kg, ip measured 0.5 to 24 hrs; type: organism-based; settings: in vivo, time 0.5-24 hrs
[20] = Toxicity in NMRI mouse assessed as neurological changes upto 100 mg/kg, ip measured 0.5 to 24 hrs; type: organism-based; settings: in vivo, time 0.5-24 hrs
Mus musculus [21] = assay: Anti-amnesic effect in scopolamine-induced memory impairment NMRI mouse model assessed as spatial working memory by measuring increase in spontaneous alteration at 0.1 mg/kg, ip measured after 30 mins by Y-maze test; type: functional, organism-based

T1 sequence (P50406 whole entry): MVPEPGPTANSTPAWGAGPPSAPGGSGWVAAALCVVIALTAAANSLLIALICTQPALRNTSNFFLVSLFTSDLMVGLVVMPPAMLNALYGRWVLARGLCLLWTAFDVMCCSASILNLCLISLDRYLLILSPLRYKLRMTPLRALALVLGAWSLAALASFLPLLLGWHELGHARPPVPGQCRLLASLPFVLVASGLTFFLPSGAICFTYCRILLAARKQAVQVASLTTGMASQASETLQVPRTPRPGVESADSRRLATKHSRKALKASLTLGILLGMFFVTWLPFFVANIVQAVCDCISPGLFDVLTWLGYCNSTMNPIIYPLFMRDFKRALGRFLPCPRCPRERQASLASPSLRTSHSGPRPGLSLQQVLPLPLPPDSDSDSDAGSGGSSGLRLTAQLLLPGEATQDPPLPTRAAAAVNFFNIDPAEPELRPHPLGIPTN
Chain of 5-hydroxytryptamine receptor 4 (O70528 whole entry): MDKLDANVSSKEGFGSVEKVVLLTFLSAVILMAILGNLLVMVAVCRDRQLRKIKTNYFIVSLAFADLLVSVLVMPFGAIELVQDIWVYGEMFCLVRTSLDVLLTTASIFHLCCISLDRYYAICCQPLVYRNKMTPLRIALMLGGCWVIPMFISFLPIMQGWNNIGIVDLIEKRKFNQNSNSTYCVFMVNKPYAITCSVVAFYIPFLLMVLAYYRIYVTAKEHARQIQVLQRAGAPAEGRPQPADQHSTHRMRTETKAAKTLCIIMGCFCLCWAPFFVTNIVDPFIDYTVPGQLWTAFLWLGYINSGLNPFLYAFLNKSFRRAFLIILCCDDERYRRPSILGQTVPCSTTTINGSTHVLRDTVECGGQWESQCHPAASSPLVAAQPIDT
Chain of 5-hydroxytryptamine receptor 4 (Cavia porcellus) (O70528 whole entry): as above
T4 sequence (P28223 whole entry): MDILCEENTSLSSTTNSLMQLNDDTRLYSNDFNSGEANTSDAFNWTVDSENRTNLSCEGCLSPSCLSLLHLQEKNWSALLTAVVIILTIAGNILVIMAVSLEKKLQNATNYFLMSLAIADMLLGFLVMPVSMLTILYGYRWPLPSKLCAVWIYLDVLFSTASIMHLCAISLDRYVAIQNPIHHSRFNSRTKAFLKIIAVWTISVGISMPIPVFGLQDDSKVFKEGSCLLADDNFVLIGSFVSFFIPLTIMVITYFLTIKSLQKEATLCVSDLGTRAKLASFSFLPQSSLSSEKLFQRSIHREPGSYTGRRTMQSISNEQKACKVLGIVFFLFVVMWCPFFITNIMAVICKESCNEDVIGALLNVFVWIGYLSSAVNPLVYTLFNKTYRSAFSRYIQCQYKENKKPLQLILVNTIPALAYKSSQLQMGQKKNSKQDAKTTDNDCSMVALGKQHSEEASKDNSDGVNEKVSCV
Chain of 5-hydroxytryptamine receptor 2B (Homo sapiens) (P41595 whole entry): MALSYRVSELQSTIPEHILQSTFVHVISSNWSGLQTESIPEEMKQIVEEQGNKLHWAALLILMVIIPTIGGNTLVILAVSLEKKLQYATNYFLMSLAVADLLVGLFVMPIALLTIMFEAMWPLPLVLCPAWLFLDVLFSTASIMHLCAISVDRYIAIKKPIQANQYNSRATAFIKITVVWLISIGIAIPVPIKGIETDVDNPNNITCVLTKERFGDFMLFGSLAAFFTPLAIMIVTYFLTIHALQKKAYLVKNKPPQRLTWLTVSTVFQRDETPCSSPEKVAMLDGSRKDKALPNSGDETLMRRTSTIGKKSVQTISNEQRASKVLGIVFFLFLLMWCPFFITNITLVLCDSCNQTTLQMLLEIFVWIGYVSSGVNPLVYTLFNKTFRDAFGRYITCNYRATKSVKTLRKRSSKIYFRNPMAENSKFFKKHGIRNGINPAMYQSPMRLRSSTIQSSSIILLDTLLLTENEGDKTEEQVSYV
Chain of 5-hydroxytryptamine receptor 1B (Rattus norvegicus) (P28564 whole entry): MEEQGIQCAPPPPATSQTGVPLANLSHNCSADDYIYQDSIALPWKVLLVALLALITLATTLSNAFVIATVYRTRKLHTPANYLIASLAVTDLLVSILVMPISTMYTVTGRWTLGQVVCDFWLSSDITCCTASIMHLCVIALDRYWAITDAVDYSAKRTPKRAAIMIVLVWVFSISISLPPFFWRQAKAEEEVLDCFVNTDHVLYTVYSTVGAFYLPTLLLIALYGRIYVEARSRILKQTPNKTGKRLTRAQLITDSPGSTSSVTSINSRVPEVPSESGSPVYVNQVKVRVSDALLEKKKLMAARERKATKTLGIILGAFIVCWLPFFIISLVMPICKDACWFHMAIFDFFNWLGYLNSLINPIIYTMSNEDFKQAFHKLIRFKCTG
Chain of 5-hydroxytryptamine receptor 1D (Rattus norvegicus) (P28565 whole entry): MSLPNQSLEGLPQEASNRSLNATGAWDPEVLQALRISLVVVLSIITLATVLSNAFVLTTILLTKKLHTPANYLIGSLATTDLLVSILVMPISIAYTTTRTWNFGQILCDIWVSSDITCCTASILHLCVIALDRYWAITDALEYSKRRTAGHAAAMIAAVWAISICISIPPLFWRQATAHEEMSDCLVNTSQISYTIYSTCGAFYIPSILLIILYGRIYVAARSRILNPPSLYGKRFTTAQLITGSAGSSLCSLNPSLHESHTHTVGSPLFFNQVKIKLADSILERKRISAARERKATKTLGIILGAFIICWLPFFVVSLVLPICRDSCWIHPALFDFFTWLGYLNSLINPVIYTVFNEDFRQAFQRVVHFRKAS

| SMILES | inhibition [1] | inhibition ([2]; filed as antagonist) | Ki ([3]; read-out: Ki) | inhibition [4] | inhibition ([5]; filed as agonist) | inhibition ([4]; filed as agonist) | further results |
| --- | --- | --- | --- | --- | --- | --- | --- |
| COc1ccc(S(=O)(=O)NCCN2CCC(CCC(=O)c3cc(Cl)c(N)cc3OC)CC2)cc1OC | 3% | 58% | 0.0082 µM | 30% | 100% |  |  |
| COc1ccc(S(=O)(=O)NCCN2CCC(CCC(=O)c3cc(Cl)c(N)cc3OC)CC2)cc1Cl | 20% | 85% | 0.0225 µM |  | 100% | 41% | Ki ([6]; read-out: Ki): 0.158 µM |
| COc1cc(N)c(Cl)cc1C(=O)CCC1CCN(CCNS(=O)(=O)c2cc(Br)c(N)c(Br)c2)CC1 |  | 83% | 0.0087 µM |  | 100% | 46% | Ki ([6]; read-out: Ki): 0.14 µM; inhibition ([1]; filed as antagonist): 52% |
| COc1cc(N)c(Cl)cc1C(=O)CCC1CCN(CCNS(=O)(=O)c2ccc3c(c2)N(C)CCO3)CC1 | inactive |  | 0.05 µM | 12% | 100% |  | inhibition [2]: 7% |
| COc1cc(N)c(Cl)cc1C(=O)CCC1CCN(CCNS(=O)(=O)c2ccc(OC)c(N3CCN(C)CC3)c2)CC1 | 4% | 43% | 0.00346 µM |  | 97% | 75% |  |
| COc1cc(N)c(Cl)cc1C(=O)CCC1CCN(CCNS(=O)(=O)c2ccc(C)cc2)CC1 | inactive |  | 0.018 µM | 20% | 100% |  | inhibition [2]: 15% |
| COc1ccc(S(=O)(=O)NCCN2CCC(CCC(=O)c3cc(Cl)c(N)cc3OC)CC2)c(OC)c1 | inactive | 45% | 0.0187 µM | 19% | 100% |  |  |
| COc1ccc(S(=O)(=O)NCCN2CCC(CCC(=O)c3cc(Cl)c(N)cc3OC)CC2)cc1 | 36% | 52% | 0.0123 µM |  | 100% | 48% |  |
| COc1ccc(S(=O)(=O)NCCN2CCC(CCC(=O)c3cc(Cl)c(N)cc3OC)CC2)cc1Br | inactive | 72% | 0.0243 µM | 24% | 99% |  | Ki ([6]; read-out: Ki): 0.147 µM |
| COc1cc(N)c(Cl)cc1C(=O)CCC1CCN(CCNS(=O)(=O)c2ccc(NC(C)=O)cc2)CC1 | 7% | 67% | 0.0077 µM |  | 100% | 56% | Ki ([6]; read-out: Ki): 0.834 µM |
| COc1ccc(S(=O)(=O)NCCCN2CCC(CCC(=O)c3cc(Cl)c(N)cc3OC)CC2)cc1 | inactive |  | 0.026 µM |  | 100% | 41% | inhibition [2]: inactive |
| COc1cc(N)c(Cl)cc1C(=O)CCC1CCN(CCNS(=O)(=O)c2cc(Br)ccc2Br)CC1 | 16% | 52% | 0.0163 µM |  | 100% | 51% |  |
| COc1ccc(S(=O)(=O)N2CCC(CCC(=O)c3cc(Cl)c(N)cc3OC)CC2)cc1 | inactive |  |  | 10% |  |  | inhibition [2]: inactive; inhibition [5]: 20% |
| COc1ccc(NS(=O)(=O)c2sc3ccc(Cl)cc3c2C)cc1N1CCNCC1 |  |  |  |  |  |  | Ki ([6]; hek293): Active |
| COc1ccc(S(=O)(=O)CCCN2CCC(CCC(=O)c3cc(Cl)c(N)cc3OC)CC2)cc1 | 10% |  | 0.0122 µM | 11% | 100% |  | inhibition [2]: 33% |
| COc1cc(N)c(Cl)cc1C(=O)CCC1CCN(CCNS(=O)(=O)c2ccc3c(c2)NC(=O)CO3)CC1 | inactive |  | 0.0062 µM | 30% | 100% |  | inhibition ([2]; filed as agonist): 40% |
| COc1cc(N)c(Cl)cc1C(=O)CCC1CCN(CCNS(=O)(=O)c2ccc(N)cc2)CC1 | 7% | 46% | 0.00197 µM |  | 100% | 76% |  |
| COc1cc(N)c(Cl)cc1C(=O)CCC1CCN(CCNS(=O)(=O)c2ccc(N)c(Br)c2)CC1 | 39% | 85% | 0.0053 µM |  | 100% | 60% | Ki [7]: 0.16 µM; inhibition [8]: 41%; inhibition [9]: 92.6%; inhibition [10]: 100%; Ki [11]: 0.33 µM; inhibition [12]: 93.6%; inhibition [13]: 51.1%; inhibition [14]: 62.3%; inhibition [15]: 66.1%; Activity (Mus musculus [16]): inactive; Activity (Mus musculus [17]): Active; Activity [18]: Non-Toxic; Activity [19]: Non-Toxic; Activity [20]: Non-Toxic; Ki ([6]; read-out: Ki): 0.219 µM; Activity (Mus musculus [21]): inactive |
| CCCCN1CCC(CCC(=O)c2cc(Cl)c(N)cc2OC)CC1 |  |  |  |  |  |  | Ki ([6]; hek293): Active; Ki [3]: Active |
